According to article PMC6830379 (International Journal of Nanomedicine, 2019):
Counter-ions that a name gives are not always drawn. Like-named read-outs stand apart in the source and are kept apart here.

Tests used:
[1] = depending on the dosage form; reported, ref not given; cited from earlier work
[2] = cited from earlier work
[3] = Determination of SQR solubility in oils, surfactants and co-surfactants; format: physicochemical; conditions: ethanol

CC(C)(C)NC(=O)[C@@H]1C[C@@H]2CCCC[C@@H]2CN1C[C@@H](O)[C@H](Cc1ccccc1)NC(=O)[C@H](CC(N)=O)NC(=O)c1ccc2ccccc2n1 [SQR, Saquinavir mesylate]
oral bioavailability [1]: 0.7–4.0% | aqueous solubility ([2]; pH of 6.5): 73 mg/L | aqueous solubility ([2]; pH of 7.4): 36 mg/L | solubility at 72 h [3]: 126 mg/mL
